LC retention time data for 111 compounds are collected here from the RepoRT retention time repository.

The structures appear in SMILES notation.

The nature of the data set: Agilent ZORBAX 300 SB-C18, 150 × 1 mm, 3.5 µm; A: water + 0.01% heptafluorobutyric acid; B: acetonitrile + 0.01% heptafluorobutyric acid; gradient (min/%B) 0/0 100/90. As to conditions: stereoisomer not certain.
On to `O=C(CN1C(=O)c2ccccc2C1=O)Nc1ccccc1C(=O)N1CCN(c2ccccc2)CC1`, for which the LC retention time was 13.1 min. The figure for `C=CCC1(CC=C)CNCCN1` is 7.33 min; for `NC(=O)c1cc(O)c(O)c(O)c1` it is 2.23 min.

On to `CCN(CC)c1cc(C)c2ccccc2n1`, for which the LC retention time came to 9.54 min. Take `c1ccc(-c2nc3ccccc3[nH]2)cc1`: the LC retention time was found to be 9.01 min. As for `C#CC1(N)CCCCC1`, the figure is 7.77 min; as for `CC(C)Nc1ccccc1`, 8.04 min. The figure for `CCN(CC)CCC(O)(c1ccccc1)C1CCCCC1` (stereo unspecified) is 11.3 min; for `Cc1ccncc1` it is 6.26 min.

For the compound `CN(C)c1ccc(C=NNc2nc3ccccc3c(=O)n2-c2ccccc2)cc1`, the LC retention time turned out to be 14.3 min. In the case of `CC(=O)c1c(C(C)=O)c(C)n(CCc2c[nH]c3ccccc23)c1C`, the LC retention time was 12.5 min. On to `CCc1ccccn1`, for which the LC retention time came to 6.68 min. The figure for `Nc1ccc2nc(-c3ccccc3)oc(=O)c2c1` is 11.2 min.

In the case of `Cc1cc(C)nc(C)c1`, the LC retention time is 7.46 min. The figure for `S=C(Nc1cccnc1)N(CCc1ccccc1)Cc1ccccc1` is 12.8 min; for `CC1(C)CC(N)CC(C)(CN)C1` (stereo unspecified) it is 7.39 min; for `CCOC(=O)c1c(N)n(C(C)=O)[nH]c1=O` it is 6.93 min. The figure for `CCNC(=S)N1CCCC(C(N)=O)C1` (stereo unspecified) is 7.41 min; for `Cc1cc(C)c2ccc3ccccc3c2n1` it is 12.4 min; for `Nc1ccc2[nH]ncc2c1` it is 5.74 min. In the case of `Nc1ncnc2[nH]ncc12`, the LC retention time is 5.98 min. As for `O=C(Nc1cccnc1)c1ccc(=O)[nH]n1`, the LC retention time stood at 6.84 min.

In the case of `CN(C)C(=O)Oc1cc(OC(=O)N(C)C)cc(C(O)CNC(C)(C)C)c1` (stereo unspecified), the LC retention time came to 9.59 min. As for `CN(C)CCCNCCCN`, the figure is 7.35 min; as for `COc1ccc2c3c1OC1C(=O)CCC4(O)C(C2)N(C)CCC314` (stereo unspecified), 8.39 min; as for `S=C(Nc1ccccn1)NC1CCCCC1`, 10.7 min. The figure for `Cc1ccc2c(CN3CCNCC3)cc(=O)oc2c1` is 8.81 min; for `CSc1cccc2cccnc12` it is 11 min. As for `C#CCN(CCCC)CCCC`, the figure is 9.04 min; as for `CC(c1ccccc1)N1CNc2c(c(=O)[nH]c(=O)n2Cc2ccccc2)C1` (stereo unspecified), 9.33 min. As for `COc1cc(C2ON=C(CN3CCOCC3)C2C)c(OC)c2c1OCO2` (stereo unspecified), the LC retention time came out at 9.6 min. As for `O=C(O)CCCCC1SCC2NC(=O)NC21` (stereo unspecified), the figure is 7.67 min; as for `CCC1NC(=O)NC(C)=C1C(C)=O` (stereo unspecified), 7.34 min. As for `O=C(O)CCCC(=O)Nc1ccccc1`, the figure is 8.72 min; as for `COC(=O)Cn1c(=O)c2ccccc2n(CC(=O)OC)c1=O`, 10.7 min; as for `CCn1cc(CCO)c2ccccc21`, 11.7 min. Consider `Cc1cccc(C)c1NC1=NCCCS1`, for which the LC retention time was determined as 9.58 min. `O=C(OCC(c1ccccc1)c1ccccc1)c1cccnc1`: the LC retention time came to 15.9 min. The figure for `c1cncc(-c2cccs2)c1` is 9.08 min.

As to `Cc1cccc(C)c1NC(=S)Nc1ccccc1`, the LC retention time was determined as 13.1 min.

On to `O=C(O)C=CC(=O)N1CCc2ccccc21`, for which the LC retention time was 9.97 min. The figure for `NC(=O)NCc1ccccn1` is 3.95 min. As for `C=CCN(C)CC=C`, the figure is 6.98 min; as for `CCOC(=O)C(C(C)=NNC(=O)c1ccc(NC(C)=O)cc1)C(C)C` (stereo unspecified), 10.8 min; as for `CNCc1cccs1`, 7 min. With `CC1Cc2ccccc2N1` (stereo unspecified), the LC retention time turned out to be 7.66 min.

As to `CC(C)(C)c1ccc(C(=O)NN=Cc2c[nH]c3ccccc23)cc1`, the LC retention time turned out to be 14.2 min. As to `Cc1cc(C)c(-c2csc(N)n2)c(C)c1`, the LC retention time worked out at 8.82 min.

As for `Cc1ccoc1CC[N+](C)(C)C`, the LC retention time amounted to 7.96 min.

Consider `c1cnc2[nH]ccc2c1`, for which the LC retention time came out at 7.27 min. The figure for `Cc1ccc(NC(=O)C(=O)NCCN2CCN(C(=O)c3ccccc3)CC2)cc1` is 9.8 min; for `COc1cccc(C=NNC(=O)c2ccccc2)c1OC` it is 11.7 min; for `O=C(NCc1ccc(-n2cccc2)cc1)C(c1ccccc1)c1ccccc1` it is 16.6 min. As for `NC(=O)C1CCN(C(=O)c2ccco2)CC1`, the figure is 6.85 min; as for `Nc1ccc(NC(=O)c2cccc(C(=O)Nc3ccc(N)cc3)c2)cc1`, 7.98 min. The figure for `O=C1CCNC2CCCCC12` (stereo unspecified) is 6.79 min. Consider `COc1ccc2cc3[n+](cc2c1OC)CCc1cc2c(cc1-3)OCO2`, for which the LC retention time worked out at 10.6 min.

On to `S=c1[nH]ccc2ccccc12`, for which the LC retention time stood at 9.61 min. For `CC1CN=C(NC2CCCCC2)S1` (stereo unspecified), the LC retention time came to 7.02 min.

As for `NC1CCNCC1`, the LC retention time amounted to 6.22 min. As for `c1ccc(-n2c3c(c4ccccc42)CCCC3)cc1`, the figure is 21.2 min; as for `Cc1ccc(C)n1-c1cccc(C(=O)O)c1`, 12.9 min; as for `CCCCCCN(C)CCCCCC`, 11.9 min.

On to `c1ccc(Nc2ncnc3nc[nH]c23)cc1`, for which the LC retention time was found to be 8.8 min. The figure for `CCC(N)CC` is 7.05 min; for `CCCc1cc(C(N)=O)ccn1` it is 7.11 min. As for `Cc1ccc2ccc[n+](C)c2c1`, the figure is 7.88 min; as for `CC(=O)NC(Cc1c[nH]c2ccccc12)C(N)=O` (stereo unspecified), 7.8 min; as for `Oc1cccc(-c2cc(-c3ccccc3)c3c(ccc4ncccc43)n2)c1`, 13.7 min. The figure for `Nc1ccc2c(c1)C(=O)N(c1ccc3ccccc3c1)C2=O` is 13.6 min; for `O=C(Nc1ccccn1)c1cccc(N2C(=O)CCC2=O)c1` it is 8.59 min; for `c1ccc2ncccc2c1` it is 7.27 min.

As for `COC(=O)Nc1nc2ccc(Sc3ccccc3)cc2[nH]1`, the LC retention time amounted to 12.2 min.

As to `CN1CCn2c1nc(N1CCOCC1)nc2=O`, the LC retention time turned out to be 7.25 min.

For `Nc1cccc2c1C(=O)c1cccc(N)c1C2=O`, the LC retention time worked out at 12.6 min. Consider `CCOC(=O)C1(c2ccccc2)CCN(CCc2ccc(N)cc2)CC1`, for which the LC retention time came out at 10.1 min. Regarding `O=C(NCCCCc1ccccc1)C(=O)NCc1ccco1`, the LC retention time was 14.3 min. The figure for `Nc1ccc2[nH]ccc2c1` is 7.01 min; for `O=C1CCNc2cc3ccccc3cc21` it is 12.1 min; for `CC1(C)Cc2ccccc2C(C2=C(O)CCCC2=O)=N1` it is 10.1 min. As for `NC(=O)C(N)c1ccccc1` (stereo unspecified), the figure is 6.56 min. Regarding `NC1=NCCS1`, the LC retention time amounted to 5.28 min. The figure for `O=P(O)(O)CN(CCN(CP(=O)(O)O)CP(=O)(O)O)CP(=O)(O)O` is 1.09 min. The figure for `COc1ccc(N)c(C)c1C` is 8.59 min; for `CCCOC(=O)CCNc1n[nH]c(=O)[nH]c1=O` it is 8.44 min; for `O=c1c(Cc2ccccc2)c(O)c2ccccc2n1Cc1ccccc1` it is 15.2 min. As for `Cc1ccc(C)n1-c1ccccc1C(=O)O`, the figure is 12.1 min. Consider `Cc1[nH]c(C=O)c(C)c1C`, for which the LC retention time stood at 10.3 min. The figure for `CNC(C)C(O)c1ccccc1` (stereo unspecified) is 8.37 min. With `Cc1ccc2[nH]c(-c3ccccc3)cc2c1`, the LC retention time came out at 16.8 min. The figure for `O=C(Cc1ccccc1)Nc1ccc(-c2nc(-c3ccccc3)c3cc(NC(=O)Cc4ccccc4)ccc3n2)cc1` is 17.8 min.

On to `CC(=O)NNC(=O)c1ccncc1`, for which the LC retention time is 3.54 min. Regarding `CC(C)(C)NCC(O)c1ccc(O)c(CO)c1` (stereo unspecified), the LC retention time was 7.63 min. The figure for `c1ccc2[nH]c(CCn3c4c(c5ccccc53)CCCC4)nc2c1` is 12 min; for `Cc1[nH]c2ccccc2c1CCNC(=O)CN1C(=O)c2ccccc2C1=O` it is 12.4 min; for `Nc1c(S(=O)(=O)O)ccc2c1C(=O)c1ccccc1C2=O` it is 8.56 min. For `N=c1oc2ccccc2cc1C(=O)Nc1ccc(Oc2ccccc2)cc1`, the LC retention time worked out at 13 min.

On to `CC(=O)Nc1ccc(C(=O)NCc2ccccn2)cc1`, for which the LC retention time was 7.41 min. As for `Nc1ccnc2ccccc12`, the figure is 7.32 min; as for `Cc1c(N=Cc2ccncc2)c(=O)n(-c2ccccc2)n1C`, 8.92 min. The figure for `CN(C)CCCN1CCC(=O)C2CCCCC21` (stereo unspecified) is 7.52 min; for `CCCCN=CC1=C(O)CC(c2ccccc2)CC1=O` (stereo unspecified) it is 13.3 min; for `CN(CCc1ccccn1)Cc1ccccn1` it is 7.79 min.

For the compound `CC1CC(C)(C)Nc2ccc(O)cc21` (stereo unspecified), the LC retention time was 8.04 min. Regarding `CC(=O)Nc1c(C)cc(C)cc1NC(=O)c1cc2ccccc2o1`, the LC retention time is 12.5 min. As for `c1ccc(-c2ccc3ccccc3n2)cc1`, the figure is 13.1 min; as for `CC1CCc2[nH]c3ccccc3c2C1` (stereo unspecified), 16.9 min; as for `CCOC(=O)C(=CNc1ccccc1N)C(=O)OCC`, 12.8 min. As for `Oc1ccc(-n2cccc2)cc1`, the figure is 11.5 min; as for `O=c1[nH]c2ccccc2n1CCOc1ccccc1`, 12.2 min; as for `O=CN1CCNCC1`, 2.79 min.
